The record followed here is US20240368135A1 (VERTEX PHARMACEUTICALS INCORPORATED, priority 2021, published 2024).

For one assay, the target named is human NaV 1.8 (Homo sapiens, UniProt Q9Y5Y9). Description: E-VIPR assay detecting and measuring NaV inhibition properties. The conditions noted are these: HEK cells expressing truncated human NaV 1.8; in the presence of human serum (compound numbers followed by *); read-out: IC50 in the E-VIPR Assay, performed in the presence of human serum. It counts as cell-based. An outline of the steps: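 HEK cells expressing truncated, fully active human NaV1.8, with KIR2.1 BacMam co-transduction, were loaded with CC2-DMPE/DiSBAC6(3) voltage-sensing dyes for 20 min at room temperature. Compounds were tested in 11-point 3-fold dilutions (300 nM top final), optionally with 25% human serum, under electrical stimulation with FRET read-out.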
Sequence of human NaV 1.8 (Q9Y5Y9 126-399 limits assumed): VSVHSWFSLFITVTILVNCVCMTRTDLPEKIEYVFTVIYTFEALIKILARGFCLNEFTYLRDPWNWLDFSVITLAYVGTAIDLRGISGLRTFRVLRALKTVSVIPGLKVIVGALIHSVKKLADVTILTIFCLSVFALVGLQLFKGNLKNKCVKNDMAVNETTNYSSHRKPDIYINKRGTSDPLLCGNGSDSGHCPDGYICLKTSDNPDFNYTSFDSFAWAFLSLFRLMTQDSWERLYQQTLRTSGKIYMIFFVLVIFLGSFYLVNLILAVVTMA
Sequence of human NaV 1.8 (Q9Y5Y9 660-890 limits assumed): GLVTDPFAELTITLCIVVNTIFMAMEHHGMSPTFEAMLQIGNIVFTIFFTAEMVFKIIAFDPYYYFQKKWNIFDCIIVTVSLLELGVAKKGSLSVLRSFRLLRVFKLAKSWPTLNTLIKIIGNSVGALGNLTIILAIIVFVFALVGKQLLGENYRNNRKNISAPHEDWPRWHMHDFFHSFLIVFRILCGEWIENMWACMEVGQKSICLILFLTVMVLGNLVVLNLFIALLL
Sequence of human NaV 1.8 (Q9Y5Y9 1148-1722 limits assumed): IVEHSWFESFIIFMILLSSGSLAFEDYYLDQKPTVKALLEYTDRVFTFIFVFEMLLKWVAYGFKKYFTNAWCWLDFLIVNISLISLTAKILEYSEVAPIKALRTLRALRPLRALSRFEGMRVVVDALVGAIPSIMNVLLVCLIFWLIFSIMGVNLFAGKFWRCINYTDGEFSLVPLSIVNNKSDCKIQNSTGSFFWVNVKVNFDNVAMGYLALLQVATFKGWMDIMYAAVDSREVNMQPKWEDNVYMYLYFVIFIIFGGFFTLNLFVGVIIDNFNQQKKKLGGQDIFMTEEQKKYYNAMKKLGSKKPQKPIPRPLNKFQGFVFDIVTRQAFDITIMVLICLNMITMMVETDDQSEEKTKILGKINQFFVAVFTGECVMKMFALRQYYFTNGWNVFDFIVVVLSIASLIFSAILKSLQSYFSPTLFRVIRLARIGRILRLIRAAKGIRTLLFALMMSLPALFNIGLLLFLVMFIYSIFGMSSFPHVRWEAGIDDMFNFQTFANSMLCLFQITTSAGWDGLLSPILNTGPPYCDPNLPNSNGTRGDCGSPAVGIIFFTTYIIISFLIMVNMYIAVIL
As to `COc1c([C@H]2[C@H](C(=O)Nc3ccnc(C(O)CO)c3)OC(C)(C)[C@H]2C)ccc(F)c1F` (relative stereo) [Compound 721, rel-(2R,3S,4S)-3-(3,4-difluoro-2-methoxyphenyl)-N-(2-(1,2-dihydroxyethyl)pyridin-4-yl)-4,5,5-trimethyltetrahydrofuran-2-carboxamide], the IC50 was in the range of 100 to 1000 nM.

The assay is the same for the next values; noted with them: HEK cells expressing truncated human NaV 1.8; no human serum; read-out: IC50 in the E-VIPR Assay.
As to `COc1c([C@H]2[C@H](C(=O)Nc3ccc(C(=O)N(C)O)nc3)O[C@@](C)(C(F)(F)F)[C@H]2C)ccc(F)c1F` [Compound 374, 5-[[(2R,3S,4S,5R)-3-(3,4-difluoro-2-methoxy-phenyl)-4,5-dimethyl-5-(trifluoromethyl)tetrahydrofuran-2-carbonyl]amino]-N-hydroxy-N-methyl-pyridine-2-carboxamide], the IC50 lay within 10 to 100 nM.

Consider `C[C@H]1[C@@H](c2ccc(F)c(F)c2OCCO)[C@H](C(=O)Nc2ccnc(CO)c2)O[C@@]1(C)C(F)(F)F` [Compound 537, (2R,3S,4S,5R)-3-(3,4-difluoro-2-(2-hydroxyethoxy)phenyl)-N-(2-(hydroxymethyl)pyridin-4-yl)-4,5-dimethyl-5-(trifluoromethyl)tetrahydrofuran-2-carboxamide], for which the 50% inhibitory concentration (IC50) was below 10 nM.

As to `CNC(CO)c1cc(NC(=O)[C@@H]2O[C@@](C)(C(F)(F)F)[C@@H](C)[C@H]2c2ccc(F)c(F)c2OC)ccn1` (single isomer, unassigned) [Compound 232], the IC50 is below 10 nM.

On to `COc1c([C@H]2[C@H](C(=O)Nc3ccc(-c4nnc(C)o4)nc3)O[C@@](C)(C(F)(F)F)[C@H]2C)ccc(F)c1F` [Compound 398, (2R,3S,4S,5R)-3-(3,4-difluoro-2-methoxyphenyl)-4,5-dimethyl-N-(6-(5-methyl-1,3,4-oxadiazol-2-yl)pyridin-3-yl)-5-(trifluoromethyl)-tetrahydrofuran-2-carboxamide], for which the IC50 fell in the range of 10 to 100 nM.

Take `Cc1nn(C(F)F)cc1NC(=O)[C@@H]1O[C@@](C)(C(F)(F)F)[C@@H](C)[C@H]1c1ccc(F)c(F)c1OCC(=O)N(C)O` [Compound 604, (2R,3S,4S,5R)-3-(3,4-difluoro-2-(2-(hydroxy(methyl)amino)-2-oxoethoxy)phenyl)-N-(1-(difluoromethyl)-3-methyl-1H-pyrazol-4-yl)-4,5-dimethyl-5-(trifluoromethyl)tetrahydrofuran-2-carboxamide]: the IC50 lay in the range of 100 to 1000 nM.

Turning to `COc1c([C@H]2[C@H](C(=O)Nc3cncc(CO)n3)O[C@@](C)(C(F)(F)F)[C@H]2C)ccc(F)c1F` [Compound 382, (2R,3S,4S,5R)-3-(3,4-difluoro-2-methoxyphenyl)-N-(6-(hydroxymethyl)pyrazin-2-yl)-4,5-dimethyl-5-(trifluoromethyl)tetrahydrofuran-2-carboxamide], the IC50 fell in the range of 100 to 1000 nM.

For the molecule `COc1c([C@H]2[C@H](C(=O)Nc3ccnc([C@@H](O)[C@H](C)O)c3)O[C@@](C)(C(F)(F)F)[C@H]2C)ccc(F)c1F` (single isomer, unassigned) [Compound 204, rel-(2R*,3S*,4S*,5R*)-3-(3,4-difluoro-2-methoxyphenyl)-N-(2-((1R,2S)-1,2-dihydroxypropyl)pyridin-4-yl)-4,5-dimethyl-5-(trifluoromethyl)tetrahydrofuran-2-carboxamide], the IC50 was below 10 nM.

For `COc1c([C@H]2[C@H](C(=O)Nc3cnc(C(N)=O)nc3)O[C@@](C)(C(F)(F)F)[C@H]2C)ccc(F)c1C(F)F` (stereo in doubt) [Compound 173, rel-5-((2R,3S,4S,5R)-3-(3-(difluoromethyl)-4-fluoro-2-methoxyphenyl)-4,5-dimethyl-5-(trifluoromethyl)tetrahydrofuran-2-carboxamido)pyrimidine-2-carboxamide], the IC50 is below 10 nM.

On to `C[C@H]1[C@@H](c2ccc(F)c(F)c2OC(F)F)[C@H](C(=O)Nc2ccc(C(N)=O)nc2)O[C@@]1(C)C(F)(F)F` (single isomer, unassigned) [Compound 94], for which the IC50 was below 10 nM.

On to `COCc1cc(NC(=O)[C@@H]2O[C@@](C)(C(F)(F)F)[C@@H](C)[C@H]2c2ccc(F)c(F)c2OCCO)ccn1` [Compound 564, (2R,3S,4S,5R)-3-(3,4-difluoro-2-(2-hydroxyethoxy)phenyl)-N-(2-(methoxymethyl)pyridin-4-yl)-4,5-dimethyl-5-(trifluoromethyl)tetrahydrofuran-2-carboxamide], for which the IC50 was below 10 nM.

For the molecule `CC(C)Oc1c([C@H]2[C@H](C(=O)Nc3ccnc(S(C)(=N)=O)c3)O[C@@](C)(C(F)(F)F)[C@H]2C)ccc(F)c1F` (single isomer, unassigned) [Compound 119], the 50% inhibitory concentration (IC50) was below 10 nM.

On to `COCCOc1c([C@H]2[C@H](C(=O)Nc3ccnc(CO)c3)O[C@@](C)(C(F)(F)F)[C@H]2C)ccc(F)c1F` [Compound 639, (2R,3S,4S,5R)-3-(3,4-difluoro-2-(2-methoxyethoxy)phenyl)-N-(2-(hydroxymethyl)pyridin-4-yl)-4,5-dimethyl-5-(trifluoromethyl)tetrahydrofuran-2-carboxamide], for which the IC50 was below 10 nM.

For `CCOc1c([C@H]2[C@H](C(=O)Nc3ccnc(C(O)CO)c3)O[C@@](C)(C(F)(F)F)[C@H]2C)ccc(F)c1F` (single isomer, unassigned) [Compound 104, rel-(2R*,3S*,4S*,5R*)-N-(2-(1,2-dihydroxyethyl)pyridin-4-yl)-3-(2-ethoxy-3,4-difluorophenyl)-4,5-dimethyl-5-(trifluoromethyl)tetrahydrofuran-2-carboxamide], the half-inhibitory concentration (IC50) was below 10 nM.

For the molecule `COc1c([C@H]2[C@H](C(=O)Nc3ccc(NC(C)=O)nc3)O[C@@](C)(C(F)(F)F)[C@H]2C)ccc(F)c1F` [Compound 525, (2R,3S,4S,5R)-N-(6-acetamido-3-pyridyl)-3-(3,4-difluoro-2-methoxy-phenyl)-4,5-dimethyl-5-(trifluoromethyl)tetrahydrofuran-2-carboxamide], the IC50 is 10 to 100 nM.

Regarding `COc1c([C@H]2[C@H](C(=O)Nc3ccc(-c4nc(C)no4)nc3)O[C@@](C)(C(F)(F)F)[C@H]2C)ccc(F)c1F` [Compound 393, (2R,3S,4S,5R)-3-(3,4-difluoro-2-methoxyphenyl)-4,5-dimethyl-N-(6-(3-methyl-1,2,4-oxadiazol-5-yl)pyridin-3-yl)-5-(trifluoromethyl)-tetrahydrofuran-2-carboxamide], the IC50 is 100 to 1000 nM.

As for `C[C@@H]1[C@H](c2ccc(F)c(F)c2OC(F)F)[C@@H](C(=O)Nc2ccnc(CC(C)(C)O)c2)O[C@]1(C)C(F)(F)F` (single isomer, unassigned) [Compound 463], the IC50 was at least 1000 nM.

For `Cc1nn(C(F)F)cc1NC(=O)[C@@H]1O[C@@](C)(C(F)(F)F)[C@@H](C)[C@H]1c1ccc(F)c(F)c1CCN1CC2(COC2)C1` [Compound 679, (2R,3S,4S,5R)-N-[1-(difluoromethyl)-3-methyl-pyrazol-4-yl]-3-[3,4-difluoro-2-[2-(2-oxa-6-azaspiro[3.3]heptan-6-yl)ethyl]phenyl]-4,5-dimethyl-5-(trifluoromethyl)tetrahydrofuran-2-carboxamide], the IC50 was at least 1000 nM.

As to `COc1c(C2C(C(=O)Nc3ccnc(C(O)C(C)O)c3)OC(C)(C(F)(F)F)C2C)ccc(F)c1F` (stereo not shown) [Compound 208, 3-(3,4-difluoro-2-methoxy-phenyl)-N-[2-(1,2-dihydroxypropyl)-4-pyridyl]-4,5-dimethyl-5-(trifluoromethyl)tetrahydrofuran-2-carboxamide], the IC50 is below 10 nM.

For orientation: IC50 means the midpoint of a concentration-inhibition curve.
